This passage reports IC50 results from US20240116910A1, “Heterocycles as WIP1 Inhibitors” (PMV Pharmaceuticals, Inc., priority 2022, published 2024).

The target in the experiment is recombinant His-tag Wip1(2-420) protein (amino acids #2-420) (Homo sapiens (Human), UniProt O15297). The experiment is described as follows: Wip1(2-420) phosphatase enzyme FDP assay. To be noted: fluorescein diphosphate (FDP) substrate, RT 2 hours, fluorescence Ex485/Em535; read-out: WIP1 (Truncated 2-420) FDP Assay: IC50. Format: biochemical.
Chain of recombinant His-tag Wip1(2-420) protein (amino acids #2-420) (O15297 2-420): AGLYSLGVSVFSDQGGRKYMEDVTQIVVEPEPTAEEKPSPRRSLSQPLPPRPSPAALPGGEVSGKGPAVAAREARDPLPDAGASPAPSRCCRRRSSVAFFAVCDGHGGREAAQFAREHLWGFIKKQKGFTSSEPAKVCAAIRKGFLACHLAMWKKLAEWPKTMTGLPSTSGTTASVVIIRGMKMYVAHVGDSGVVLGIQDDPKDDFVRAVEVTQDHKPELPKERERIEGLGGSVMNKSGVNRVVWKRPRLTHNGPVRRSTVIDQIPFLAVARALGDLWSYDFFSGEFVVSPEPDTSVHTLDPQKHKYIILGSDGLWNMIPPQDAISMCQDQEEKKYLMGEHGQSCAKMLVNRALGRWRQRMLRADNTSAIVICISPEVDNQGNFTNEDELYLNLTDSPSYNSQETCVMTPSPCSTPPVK

Each structure is given as a SMILES string.

As for `Cc1ncc(Cl)cc1N[C@@H](C)c1ccc(C(=O)N[C@@H](CC2CCCC2)C(=O)Nc2cnn(CC(F)(F)F)c2)s1` [Compound 147, (2S)-2-({5-[(1S)-1-[(5-chloro-2-methylpyridin-3-yl)amino]ethyl]thiophen-2-yl}formamido)-3-cyclopentyl-N-[1-(2,2,2-trifluoroethyl)-1H-pyrazol-4-yl]propanamide], the 50% inhibitory concentration (IC50) (as a rule, the concentration that inhibits the measured activity by half) came out at 6 nM.
With `Cc1ncc(Cl)cc1N[C@@H](C)c1ccc(C(=O)N[C@@H](CC2CCCC2)C(=O)Nc2ccc3ncc(C#N)cc3c2)s1` [Compound 148, (2S)-2-({5-[(1S)-1-[(5-chloro-2-methylpyridin-3-yl)amino]ethyl]thiophen-2-yl}formamido)-N-(3-cyanoquinolin-6-yl)-3-cyclopentylpropanamide] the figure was 6 nM; with `Cc1ncc(Cl)cc1N[C@@H](C)c1ccc(C(=O)N[C@@H](CC2CCCC2)C(=O)Nc2cnn(C(C)(C)C)c2)s1` [Compound 149, (2S)-N-(1-tert-butyl-1H-pyrazol-4-yl)-2-({5-[(1S)-1-[(5-chloro-2-methylpyridin-3-yl)amino]ethyl]thiophen-2-yl}formamido)-3-cyclopentylpropanamide], 6 nM.
Take `Cc1ncc(Cl)cc1N[C@@H](C)c1ccc(C(=O)N[C@@H](CC2CCCC2)C(=O)Nc2cc(N)ccn2)s1` [Compound 150, (2S)-N-(4-aminopyridin-2-yl)-2-({5-[(1S)-1-[(5-chloro-2-methylpyridin-3-yl)amino]ethyl]thiophen-2-yl}formamido)-3-cyclopentylpropanamide]: the half-inhibitory concentration (IC50) turned out to be 8 nM.
For the molecule `Cc1ncc(Cl)cc1N[C@@H](C)c1ccc(C(=O)N[C@@H](CC2CCCC2)C(=O)Nc2cnn(CCN(C)C)c2)s1` [Compound 151, (2S)-2-({5-[(1S)-1-[(5-chloro-2-methylpyridin-3-yl)amino]ethyl]thiophen-2-yl}formamido)-3-cyclopentyl-N-{1-[2-(dimethylamino)ethyl]-1H-pyrazol-4-yl}propanamide], the half-maximal inhibitory concentration (IC50) was found to be 6 nM.
With `Cc1ncc(Cl)cc1N[C@@H](C)c1ccc(C(=O)N[C@@H](CC2CCCC2)C(=O)Nc2cnn(C3CCN(C)CC3)c2)s1` [Compound 152, (2S)-2-({5-[(1S)-1-[(5-chloro-2-methylpyridin-3-yl)amino]ethyl]thiophen-2-yl}formamido)-3-cyclopentyl-N-[1-(1-methylpiperidin-4-yl)-1H-pyrazol-4-yl]propanamide], the IC50 amounted to 6 nM.
In the case of `Cc1ncc(Cl)cc1N[C@@H](C)c1ccc(C(=O)N[C@@H](CC2CCCC2)C(=O)Nc2ccc(C(N)=O)nc2)s1` [Compound 153, 5-[(2S)-2-({5-[(1S)-1-[(5-chloro-2-methylpyridin-3-yl)amino]ethyl]thiophen-2-yl}formamido)-3-cyclopentylpropanamido]pyridine-2-carboxamide], the IC50 was 5 nM.
For the molecule `Cc1ncc(Cl)cc1N[C@@H](C)c1ccc(C(=O)N[C@@H](CC2CCCC2)C(=O)Nc2ccn(C)n2)s1` [Compound 154, (2S)-2-({5-[(1S)-1-[(5-chloro-2-methylpyridin-3-yl)amino]ethyl]thiophen-2-yl}formamido)-3-cyclopentyl-N-(1-methyl-1H-pyrazol-3-yl)propanamide], the IC50 came out at 10 nM.
As for `Cc1ncc(Cl)cc1N[C@@H](C)c1ccc(C(=O)N[C@@H](CC2CCCC2)C(=O)Nc2cc[nH]n2)s1` [Compound 155, (2S)-2-({5-[(1S)-1-[(5-chloro-2-methylpyridin-3-yl)amino]ethyl]thiophen-2-yl}formamido)-3-cyclopentyl-N-(1H-pyrazol-3-yl)propanamide], the IC50 came to 7 nM.
Regarding `Cc1cc(NC(=O)[C@H](CCC(C)(C)C)NC(=O)c2ccc([C@H](C)Nc3cc(Cl)cnc3C)s2)ccn1` [Compound 157, (2S)-2-({5-[(1S)-1-[(5-chloro-2-methylpyridin-3-yl)amino]ethyl]thiophen-2-yl}formamido)-5,5-dimethyl-N-(2-methylpyridin-4-yl)hexanamide], the IC50 stood at 9 nM.
With `COC[C@@H](Nc1cc(Cl)cnc1C)c1ccc(C(=O)N[C@@H](CC2CCCC2)C(=O)NC2CC2)s1` [Compound 158, (2S)-2-({5-[(1R)-1-[(5-chloro-2-methylpyridin-3-yl)amino]-2-methoxyethyl]thiophen-2-yl}formamido)-3-cyclopentyl-N-cyclopropylpropanamide], the IC50 was determined as 1000 nM.
With `COC[C@H](Nc1cc(Cl)cnc1C)c1ccc(C(=O)N[C@@H](CC2CCCC2)C(=O)NC2CC2)s1` [Compound 159, (2S)-2-({5-[(1S)-1-[(5-chloro-2-methylpyridin-3-yl)amino]-2-methoxyethyl]thiophen-2-yl}formamido)-3-cyclopentyl-N-cyclopropylpropanamide] the figure was 13 nM; with `Cc1ncc(Cl)cc1N[C@@H](C)c1ccc(C(=O)N[C@@H](CCC(C)(C)C)C(=O)NC2CC2)s1` [Compound 161, (2S)-2-({5-[(1S)-1-[(5-chloro-2-methylpyridin-3-yl)amino]ethyl]thiophen-2-yl}formamido)-N-cyclopropyl-5,5-dimethylhexanamide], 11 nM.
Take `Cc1ncc(Cl)cc1N[C@H](Cn1cccn1)c1ccc(C(=O)N[C@@H](CC2CCCC2)C(=O)NC2CC2)s1` [Compound 165, (2S)-2-({5-[(1R)-1-[(5-chloro-2-methylpyridin-3-yl)amino]-2-(1H-pyrazol-1-yl)ethyl]thiophen-2-yl}formamido)-3-cyclopentyl-N-cyclopropylpropanamide]: the IC50 came to 378 nM.
Consider `Cc1ncc(Cl)cc1N[C@@H](Cn1cccn1)c1ccc(C(=O)N[C@@H](CC2CCCC2)C(=O)NC2CC2)s1` [Compound 166, (2S)-2-({5-[(1S)-1-[(5-chloro-2-methylpyridin-3-yl)amino]-2-(1H-pyrazol-1-yl)ethyl]thiophen-2-yl}formamido)-3-cyclopentyl-N-cyclopropylpropanamide], for which the concentration for half-maximal inhibition (IC50) was 7 nM.
On to `Cc1ncc(Cl)cc1N[C@@H](C)c1ccc(C(=O)N[C@@H](CC2CCCC2)C(=O)Nc2ccc3c(c2)N(C)CCC3)s1` [Compound 167, (2S)-2-({5-[(1S)-1-[(5-chloro-2-methylpyridin-3-yl)amino]ethyl]thiophen-2-yl}formamido)-3-cyclopentyl-N-(1-methyl-1,2,3,4-tetrahydroquinolin-7-yl)propanamide], for which the IC50 worked out at 11 nM.
With `Cc1ncc(Cl)cc1N[C@@H](C)c1ccc(C(=O)N[C@@H](CC2CCCC2)C(=O)NC2CCc3ncccc3C2)s1` (stereo partly drawn) [Compound 169, (2S)-2-({5-[(1S)-1-[(5-chloro-2-methylpyridin-3-yl)amino]ethyl]thiophen-2-yl}formamido)-3-cyclopentyl-N-(5,6,7,8-tetrahydroquinolin-6-yl)propanamide] the figure was 9 nM; with `Cc1ncc(Cl)cc1N[C@H](Cc1cnn(C)c1)c1ccc(C(=O)N[C@@H](CC2CCCC2)C(=O)NC2CC2)s1` [Compound 170, (2S)-2-({5-[(1R)-1-[(5-chloro-2-methylpyridin-3-yl)amino]-2-(1-methyl-1H-pyrazol-4-yl)ethyl]thiophen-2-yl}formamido)-3-cyclopentyl-N-cyclopropylpropanamide], 217 nM.
Take `CC(Nc1cc(Cl)cnc1C(N)=O)c1ccc(C(=O)N[C@@H](CC2CCCC2)C(=O)NC23CC(C2)C3)s1` (stereo partly drawn) [Compound 172, 3-{[1-(5-{[(1S)-1-({bicyclo[1.1.1]pentan-1-yl}carbamoyl)-2-cyclopentylethyl]carbamoyl}thiophen-2-yl)ethyl]amino}-5-chloropyridine-2-carboxamide]: the IC50 amounted to 10 nM.
Take `CC(Nc1cc(Cl)cnc1C(N)=O)c1ccc(C(=O)N[C@@H](CC2CCCC2)C(=O)Nc2cnn(C)c2)s1` (stereo partly drawn) [Compound 173, 5-chloro-3-{[1-(5-{[(1S)-2-cyclopentyl-1-[(1-methyl-1H-pyrazol-4-yl)carbamoyl]ethyl]carbamoyl}thiophen-2-yl)ethyl]amino}pyridine-2-carboxamide]: the IC50 is 8 nM.
For `Cc1ncc(Cl)cc1N[C@@H](C)c1ccc(C(=O)N[C@H](C(=O)NC2CC2)C2CCCCC2)s1` [Compound 174, (2S)-2-({5-[(1S)-1-[(5-chloro-2-methylpyridin-3-yl)amino]ethyl]thiophen-2-yl}formamido)-2-cyclohexyl-N-cyclopropylacetamide], the IC50 turned out to be 37 nM.
On to `COCC(Nc1cc(Cl)cnc1C)c1ccc(C(=O)N[C@@H](CC2CCCC2)C(=O)NC2CC2)s1` (stereo partly drawn) [Compound 176, (2S)-2-[(5-{1-[(5-chloro-2-methylpyridin-3-yl)amino]-2-methoxyethyl}thiophen-2-yl)formamido]-3-cyclopentyl-N-cyclopropylpropanamide], for which the half-maximal inhibitory concentration (IC50) turned out to be 21 nM.
With `Cc1ncc(Cl)cc1N[C@@H](C)c1ccc(C(=O)N[C@@H](CC2CCCC2)C(=O)Nc2ccc3ncc(F)cc3c2)s1` [Compound 178, (2S)-2-({5-[(1S)-1-[(5-chloro-2-methylpyridin-3-yl)amino]ethyl]thiophen-2-yl}formamido)-3-cyclopentyl-N-(3-fluoroquinolin-6-yl)propanamide] the figure was 5 nM; with `Cc1ncc(Cl)cc1N[C@@H](C)c1ccc(C(=O)N[C@@H](CC2CC3CC3C2)C(=O)Nc2cnn(C)c2)s1` (stereo partly drawn) [Compound 179, (2S)-3-{bicyclo[3.1.0]hexan-3-yl}-2-({5-[(1S)-1-[(5-chloro-2-methylpyridin-3-yl)amino]ethyl]thiophen-2-yl}formamido)-N-(1-methyl-1H-pyrazol-4-yl)propanamide], 4 nM.
With `COc1cnc2ccc(NC(=O)[C@H](CC3CCCC3)NC(=O)c3ccc([C@H](C)Nc4cc(Cl)cnc4C)s3)cc2c1` [Compound 180, (2S)-2-({5-[(1S)-1-[(5-chloro-2-methylpyridin-3-yl)amino]ethyl]thiophen-2-yl}formamido)-3-cyclopentyl-N-(3-methoxyquinolin-6-yl)propanamide] the figure was 4 nM.
As to `Cc1ncc(Cl)cc1N[C@@H](c1ccc(C(=O)N[C@@H](CC2CCCC2)C(=O)NC2CC2)s1)C(F)(F)F` [Compound 184, (2S)-2-({5-[(1R)-1-[(5-chloro-2-methylpyridin-3-yl)amino]-2,2,2-trifluoroethyl]thiophen-2-yl}formamido)-3-cyclopentyl-N-cyclopropylpropanamide], the concentration for half-maximal inhibition (IC50) was determined as 131 nM.
